In the supplement of paper PMC10307832:

Legend:
Experiment in all cases: relative viability (nuclei count vs DMSO), 5 days (fraction); higher = more cells survive
[1] = compound: C1=CC=C2C(=C1)C=CC(=C2SSC3=C(C=CC4=CC=CC=C43)O)O [IPA-3] + Cc1nc(Nc2ncc(C(=O)Nc3c(C)cccc3Cl)s2)cc(N2CCN(CCO)CC2)n1 [Dasatinib] (partner 0.075 µM)
Outline: (§1)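 Nuclei were stained with Hoechst during a one-step fixation (final 0.05% Triton X-100, 1% formaldehyde, 1 ug/ml Hoechst) carried out 5 days after dosing, then counted on 4× images. The cells, lung cancer lines in 1536-well plates, had been dosed by pin tool the day after seeding with one drug alone or a fixed anchor-drug dose plus five library-drug doses (not always all listed) in √10 steps. Relative viability is the nuclei count in treated wells divided by that in vehicle wells, and each value is the median of duplicate plates.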

[2] = compound: Cc1ccc(-n2nc(C(C)(C)C)cc2NC(=O)Nc2ccc(OCCN3CCOCC3)c3ccccc23)cc1 [Doramapimod] + CC(=O)c1c(C)c2cnc(Nc3ccc(N4CCNCC4)cn3)nc2n(C2CCCC2)c1=O [Palbociclib] (partner 0.5 µM)
Outline: as §1

[3] = compound: Cc1ccc(-n2nc(C(C)(C)C)cc2NC(=O)Nc2ccc(OCCN3CCOCC3)c3ccccc23)cc1 [Doramapimod] + CC1(C)CCC(c2ccc(Cl)cc2)=C(CN2CCN(c3ccc(C(=O)NS(=O)(=O)c4ccc(N[C@H](CCN5CCOCC5)CSc5ccccc5)c(S(=O)(=O)C(F)(F)F)c4)cc3)CC2)C1 [Navitoclax] (partner 0.5 µM)
Outline: as §1

[4] = compound: Cc1ccc(-n2nc(C(C)(C)C)cc2NC(=O)Nc2ccc(OCCN3CCOCC3)c3ccccc23)cc1 [Doramapimod] + Nc1nc2[nH]cc(CCc3ccc(C(=O)N[C@@H](CCC(=O)O)C(=O)O)cc3)c2c(=O)[nH]1 [Pemetrexed] (partner 0.2 µM)
Outline: as §1

Cell Line	relative viability ([1]; first compound 0.2 µM)	relative viability ([1]; first compound 0.6325 µM)	relative viability ([1]; first compound 2 µM)	relative viability ([1]; first compound 6.325 µM)	relative viability ([1]; first compound 20 µM)	relative viability ([2]; first compound 0.02 µM)	relative viability ([2]; first compound 0.06325 µM)	relative viability ([2]; first compound 0.2 µM)	relative viability ([2]; first compound 0.6325 µM)	relative viability ([2]; first compound 2 µM)	relative viability ([3]; first compound 0.02 µM)	relative viability ([3]; first compound 0.06325 µM)	relative viability ([3]; first compound 0.2 µM)	relative viability ([3]; first compound 0.6325 µM)	relative viability ([3]; first compound 2 µM)	relative viability ([4]; first compound 0.02 µM)	relative viability ([4]; first compound 0.06325 µM)	relative viability ([4]; first compound 0.2 µM)	relative viability ([4]; first compound 0.6325 µM)	relative viability ([4]; first compound 2 µM)
NCI-H1437	0.542	0.411	0.286	0.501	0.718	0.337	0.31	0.278	0.368	0.304	1.09	1.1	1.16	1.09	1.05	0.291	0.287	0.323	0.329	0.302
NCI-H1650	0.331	0.301	0.323	0.404	0.295	0.411	0.363	0.428	0.425	0.35	1.09	1.2	1.23	1.63	1.2	0.345	0.357	0.447	0.387	0.375
NCI-H1651	0.652	0.304	0.486	0.574	0.458	0.478	0.523	0.47	0.511	0.516	0.624	0.911	0.996	1.04	1.06	0.576	0.731	0.594	0.658	0.595
NCI-H1666	0.908	0.825	0.871	0.836	0.855	0.734	0.641	0.69	0.704	0.613	0.991	0.838	1.04	0.918	0.789	0.841	0.916	0.819	0.948	0.913
NCI-H1734	0.564	0.486	0.459	0.507	0.444	0.204	0.308	0.314	0.299	0.27	0.723	0.799	0.692	0.77	0.572	0.416	0.431	0.419	0.382	0.39
NCI-H1755	0.512	0.44	0.371	0.426	0.472	0.478	0.484	0.444	0.416	0.418	0.997	1	1	1.06	0.968	0.328	0.371	0.435	0.394	0.35
NCI-H1792	1.01	0.81	0.807	0.895	1.03	0.701	0.645	0.598	0.596	0.546	0.601	0.809	0.672	0.617	0.577	0.869	0.761	0.707	0.743	0.651
NCI-H1793	0.442	0.325	0.362	0.381	0.43	0.317	0.293	0.283	0.287	0.273	0.545	0.303	0.378	0.416	0.502	0.885	0.963	0.957	0.918	0.657
NCI-H1915	0.317	0.297	0.312	0.316	0.334	0.507	0.547	0.469	0.525	0.487	0.843	0.838	0.85	0.801	0.761	0.452	0.464	0.498	0.699	0.419
NCI-H1944	0.213	0.198	0.244	0.314	0.234	0.321	0.306	0.322	0.307	0.271	1	1.11	1.05	1.17	1.08	0.573	0.623	0.503	0.595	0.572
NCI-H1975	0.466	0.368	0.337	0.334	0.299	0.583	0.576	0.488	0.596	0.512	1.2	1.19	0.991	1.16	0.981	0.305	0.276	0.304	0.293	0.282
NCI-H1993	0.567	1.77	0.63	0.364	0.585	0.641	0.58	0.621	0.596	0.504	0.952	0.749	0.966	0.918	0.834	0.627	0.517	0.504	0.658	0.558
NCI-H2009	0.346	0.307	0.287	0.295	0.19	0.26	0.262	0.3	0.314	0.247	1.25	1.18	1.2	1.29	1.19	1.03	1.04	1.06	1.01	1
NCI-H2023	0.816	0.513	0.68	0.493	0.679	0.299	0.367	0.296	0.392	0.323	1.09	1.08	0.892	1	0.948	0.215	0.219	0.226	0.259	0.215
NCI-H2085	0.224	0.256	0.267	0.23	0.266	0.525	0.527	0.5	0.52	0.529	1.22	1.05	1.07	1.3	1.2	0.938	0.972	0.926	1.07	0.657
